One assay deals with Panc-1 cells. Put plainly: Panc-1 proliferation with 5-FU alone or after Bac7-ELP1-p21 pretreatment (MTS). It counts as cell-based, human. The protocol:
Panc-1 cells were treated for 72 h with 5-F-U with or without pre-treatment with Bac7-ELP1-p21 for 1 hr at 42° C. Cell proliferation was assessed by the MTS assay. Bars, SEM of 3 experiments.
Resistance to Current Chemotherapeutic Agents: One of the therapeutic agents currently used in the clinical setting for pancreatic cancer is 5-Fluorouracil (5-FU).

The subject of assay [1] is MCF-7 cells. Put plainly: Drug IC50 with and without polypeptide pretreatment (MTS cell viability assay). It counts as cell-based. To be noted: for IC50: Homo sapiens, MCF7. The protocol: The effect of drug concentration on cell viability for Dox (A) or etoposide (B) was determined with and without Pen-ELP-H1 pretreatment. Cells were pretreated on day 1 with 20 μM Pen-ELP-H1 and treated on day 4 with drug. Viability was determined on day 7 using the MTS cell viability assay. A single representative experiment is shown (error bars=SD).
The ability of Pen-ELP-H1 to enhance the effectiveness of chemotherapeutic agents was tested in MCF-7 breast cancer cells. Cells were treated on day 1 with 20 μM Pen-ELP-H1 or a control polypeptide which lacks the c-Myc inhibitory sequence (Pen-ELP) for 1 h, rinsed, and placed in fresh media for 3 days. On day 4, the cells were exposed to the drugs at various concentrations for 72 h, and viability was assessed using the MTS cell viability assay. […] Data from the MTS assay was averaged and fit using an exponential equation in order to calculate the IC50 with and without pretreatment.
Table 3. […] Statistical significance was assessed using an unpaired Student's t-test.
(In general: Formazan colour is commonly taken as a measure of viable cells.)

Assay [2] relates to MCF-7 cells. Put plainly: Dox/etoposide toxicity after pretreatment with DFMO and/or Pen-ELP-H1 (MTS). The class given is cell-based. The note with it: then Dox 750 nM for 72 h. The protocol:
FIG. 33-1 is a set of graphs that show proliferation with DFMO and Dox or Etoposide. Cells were pretreated with 20 μM Pen-ELP-H1 or 50 μM DFMO on day 1, and treated with 750 nM Dox (A) or 200 μM etoposide (B) on day 4. Cell viability was determined on day 7 using the MTS cell viability assay. Results represent the mean±SEM of 3 independent experiments.
As a transcription factor, c-Myc influences the transcription levels of a large variety of genes. One of the genes under c-Myc control encodes the enzyme ODC (140). ODC catalyzes the first and rate-limiting step in the synthesis of cellular polyamines (148). […] Above, it was shown that interruption of the c-Myc/Max heterodimer by the Pen-ELP-H1 polypeptide caused a reduction in the steady-state levels of ODC mRNA to less than 40% of control levels (93). This observation led to the hypothesis that modulation of Dox and etoposide toxicity may be due to a reduction in the amount of ODC in the cell. In order to test this hypothesis, a combination of pretreatment with the ODC inhibitor DFMO and/or Pen-ELP-H1 was used in the Dox and etoposide toxicity assay. MCF-7 cells were pretreated with Pen-ELP-H1 (20 μM), DFMO (50 μM), or both before a 72 h exposure to Dox (750 nM) or etoposide (200 μM). […] Similar results were obtained with Pen-ELP-H1 and/or DFMO combined with etoposide (FIG. 33-1 B).

Another assay deals with HeLa cells. Put plainly: Drug IC50 with and without Pen-ELP-H1 pretreatment. It counts as cell-based, human. To be noted: for IC50: Homo sapiens. On the procedure: (§1) Table 4. IC50 values were collected for HeLa and MES-SA cells. The Dox and etoposide IC50 was determined with and without Pen-ELP-H1 pretreatment. Curves were fit using an exponential equation, and the IC50 value shown represents the mean±SEM of at least 5 independent determinations each performed with 4 replicates per drug concentration. Statistical significance was assessed using an unpaired Student's t-test.

Another assay deals with MES-SA cells. Put plainly: Drug IC50 with and without Pen-ELP-H1 pretreatment. The class given is cell-based. To be noted: for IC50: Homo sapiens. On the procedure:
as §1

The subject of assay [3] is MCF-7 cells. Put plainly: Cell cycle distribution by BrdU and propidium iodide flow cytometry. It counts as cell-based. The note with it: for G1 fraction / S phase fraction: day 5; for effect on cell cycle distribution: agent alone (Pen-ELP-H1 20 μM, Dox 100 nM, etoposide 1 μM). On the procedure: FIG. 31 is a set of graphs that show cell cycle analysis of MCF-7 Cells after Pen-ELP-H1 Pretreatment before Dox or Etoposide. A. Cells were pretreated with 20 μM Pen-ELP-H1 on day 1 and 100 nM Dox or 1 μM etoposide on day 4 and analyzed on day 5 by flow cytometry with BrdU and propidium iodide staining Raw data for a single representative experiment is shown. 4 independent experiments with Dox (B) and etoposide (C) were averaged. Percentages were determined by analysis of 5000 cells/sample, and results shown represent the mean±SEM.
To gain more insight into the effect of polypeptide and drug treatment, the cell cycle distribution of MCF-7 cells was examined. Cells were treated as above with 20 μM Pen-ELP-H1 on day 1 and Dox (100 nM) or etoposide (1 μM) on day 4. On day 5, the cells were pulsed with BrdU and stained with propidium iodide for flow cytometric analysis of the cell cycle distribution. BrdU was used to accurately estimate the fraction of cells in S-phase, and this was combined with propidium iodide staining to denote each phase of the cell cycle (FIG. 31A). […] The pattern observed with Dox was enhanced upon pretreatment with Pen-ELP-H1, where the G1 fraction increased from about 48% to 53%, and the S phase fraction was reduced from 8% to 5% as compared to treatment with Dox alone (FIG. 31B).
(In general: Flow cytometry measures light scatter and fluorescence of single cells or particles in a stream.)

Another assay addresses c-Myc (UniProt P01106). The assay is described as follows: cell-based or functional assay.
UniProt P01106, sequence (P01106 whole entry): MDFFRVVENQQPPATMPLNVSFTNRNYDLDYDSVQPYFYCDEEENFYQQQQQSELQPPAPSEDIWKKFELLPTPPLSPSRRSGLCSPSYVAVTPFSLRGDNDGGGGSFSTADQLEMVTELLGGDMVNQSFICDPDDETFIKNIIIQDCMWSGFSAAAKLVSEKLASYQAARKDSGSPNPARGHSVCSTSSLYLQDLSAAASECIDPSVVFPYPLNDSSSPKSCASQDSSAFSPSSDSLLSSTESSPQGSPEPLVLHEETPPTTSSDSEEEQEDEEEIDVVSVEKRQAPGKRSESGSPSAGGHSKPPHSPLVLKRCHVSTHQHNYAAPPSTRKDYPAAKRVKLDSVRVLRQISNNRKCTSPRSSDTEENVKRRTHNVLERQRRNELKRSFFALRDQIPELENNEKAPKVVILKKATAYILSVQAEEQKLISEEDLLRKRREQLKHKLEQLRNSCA
Where [4] appears, read: 20 μM Pen-ELP on day 1, drug on day 4 for 72 h, read-out: IC50 after Pen-ELP pretreatment (mean ± SEM).
Where [5] appears, read: 20 μM Pen-ELP-H1 on day 1, drug on day 4 for 72 h, read-out: IC50 after Pen-ELP-H1 pretreatment (mean ± SEM).
[6] abbreviates: no pretreatment, 72 h drug exposure, read-out: IC50 (mean ± SEM).
Where [7] appears, read: no pretreatment, read-out: IC50 (mean ± SEM).
Setting [8] is: read-out: IC50 after Pen-ELP-H1 pretreatment (mean ± SEM).
[9] abbreviates: Dox 100 nM after 20 μM Pen-ELP-H1 pretreatment.

The record followed here is patent publication US8841414B1, “Targeted delivery of therapeutic peptides by thermally responsive biopolymers” (University of Mississippi Medical Center, priority 2006, dated 2014).

Read-outs that look alike come from different tables or passages of the source. Some results are limits rather than exact numbers.

As to `O=c1[nH]cc(F)c(=O)[nH]1` [5-FU, 5-Fluorouracil], the “sensitivity of Panc-1 cells to treatment” value in the assay on Panc-1 cells (72 h) is reported as “highly resistant”. Besides, the “effect of increasing the concentration on cell proliferation” value in the assay with Panc-1 cells (beyond 10 μM, 72 h) is reported as “no increasing effect on cell proliferation”. Also, in the assay on Panc-1 cells (pretreated 1 h at 42° C. with Bac7-ELP1-p21, then 5-FU 72 h), the “cell proliferation after pretreatment with Bac7-ELP1-p21” value is listed as “dramatically reduced”.

For the molecule `CC[C@@]1(O)C(=O)OCc2c1cc1n(c2=O)Cc2cc3ccccc3nc2-1` [Camptothecin], the half-inhibitory concentration (IC50) is 229 ± 46.4 nM in the assay on MCF-7 cells [1] (setting [4]), 235 ± 5.8 nM in the assay on MCF-7 cells [1] (setting [5]) and 235 ± 9.8 nM with MCF-7 cells [1] (setting [6]). In addition, in the assay on MCF-7 cells [1] (MCF-7), the “effect of Pen-ELP-H1 or Pen-ELP pretreatment on cell killing by the drug” value is on record as “no significant effect”.

Consider `NCCC[C@](N)(C(=O)O)C(F)F` [DFMO, α-difluoromethylornithine], for which the “enhancement of Dox-induced cell killing by pretreatment” value in the assay with MCF-7 cells [2] (Pen-ELP-H1 20 μM or DFMO 50 μM) is “enhanced the Dox-induced cell killing by similar amounts”. Also, in the assay with MCF-7 cells [2] (Pen-ELP-H1 20 μM plus DFMO 50 μM), the “enhancement of Dox toxicity by pretreatment with the combination of Pen-ELP-H1 and DFMO” value is “no greater enhancement of Dox toxicity than either agent used alone”.

As to `COc1cccc2c1C(=O)c1c(O)c3c(c(O)c1C2=O)C[C@@](O)(C(=O)CO)C[C@@H]3O[C@H]1C[C@H](N)[C@H](O)[C@H](C)O1` [Doxorubicin], the IC50 in the assay on MCF-7 cells [1] (setting [4]) was 777 ± 75.1 nM; in the assay on MCF-7 cells [1] (setting [5]), 504 ± 35.3 nM; in the assay on MCF-7 cells [1] (setting [6]), 752 ± 21.6 nM; in the assay on HeLa cells (setting [7]) it was 13.9 ± 1.3 nM; in the assay on HeLa cells (setting [8]), 9.4 ± 1.2 nM; with MES-SA cells (setting [7]), 33.7 ± 7.1 nM. Further, in the assay with MES-SA cells (setting [8]), the IC50 is 16.3 ± 1.6 nM. Further, in the assay with MCF-7 cells [1] (MCF-7), the “reduction in IC50 with Pen-ELP-H1 pretreatment” value is recorded as “about 1.5 fold”. Further, the results for the “reduction of IC50 by Pen-ELP-H1 pretreatment” value with HeLa cells and with MES-SA cells were 1.5 fold and 2 fold, respectively. Further, the results for the G1 fraction with MCF-7 cells [3] (setting [9]) and in the assay on MCF-7 cells [3] (Dox 100 nM alone) were 53% and “about 48%”, respectively. The S phase fraction in the assay with MCF-7 cells [3] (setting [9]) is 5%; in the assay on MCF-7 cells [3] (Dox 100 nM alone), 8%. Further, the “effect on cell cycle distribution” value in the assay on MCF-7 cells [3] is “arrest in G1 and G2/M at the expense of S phase”.

As for `COc1cc([C@@H]2c3cc4c(cc3[C@@H](O[C@@H]3O[C@@H]5CO[C@@H](C)O[C@H]5[C@H](O)[C@H]3O)[C@H]3COC(=O)[C@H]23)OCO4)cc(OC)c1O` [Etoposide], the IC50 with MCF-7 cells [1] (setting [4]) came to 187000 ± 13800 nM; in the assay with MCF-7 cells [1] (setting [5]), 141000 ± 3500 nM; in the assay with MCF-7 cells [1] (setting [6]), 210000 ± 12400 nM; with HeLa cells (setting [7]), 630 ± 59.2 nM; in the assay with HeLa cells (setting [8]) it was 465 ± 45.4 nM; with MES-SA cells (setting [7]) it was 17300 ± 3100 nM. The IC50 in the assay on MES-SA cells (setting [8]) is 9800 ± 3100 nM. The “reduction in IC50 with Pen-ELP-H1 pretreatment” value in the assay with MCF-7 cells [1] (MCF-7) is listed as “about 1.5 fold”. In addition, the entries for the “reduction of IC50 by Pen-ELP-H1 pretreatment” value in the assay with HeLa cells and with MES-SA cells were 1.4 fold and 1.8 fold, respectively. Further, in the assay on MCF-7 cells [3] (20 μM Pen-ELP-H1 day 1, etoposide 1 μM day 4), the “effect on cell cycle distribution after Pen-ELP-H1 pretreatment” value is “slightly enhanced the etoposide-induced accumulation in G1”. In the assay with MCF-7 cells [3], the “effect on cell cycle distribution” value is “accumulation in both G1 and G2/M”.

In the case of Pen-ELP1-H1, the steady-state levels of ODC mRNA (% of control levels) in the assay with c-Myc was < 40.

Usually IC50 stands for the concentration at which inhibition is half-maximal.
